Test results: US9725430B2, “Use of small molecule inhibitors targeting EYA tyrosine phosphatase” (Children's Hospital Medical Center, priority 2013, dated 2017)

Legend:
Eya3(ED) = Eya3(ED) (Mus musculus (Mouse), UniProt P97480); assay: p-nitrophenylphosphate (pNPP) assay, catalytic domain of Eya3; assay type: biochemical; conditions: pNPP substrate
Source text: The catalytic domain of mouse Eya3 (“ED”, comprising residues 223-510 of Eya3) was purified as described by Rayapureddi, J. P. et al. (FEBS Lett 580, 3853-3859 (2006), incorporated by reference in its entirety). For full-length Eya3 (“hEYA3”), human Eya3 isoform 2 (representing the major species identified in human cell lines by mass spectrometry, expressed as residues 127-573 of NM_001990, isoform 1) was sub-cloned into pDEST565 to express a poly-histidine-Glutathione-S-transferase (His-GST) tagged fusion protein with a TVMV protease site. The protein was purified by glutathione-S-transferase affinity chromatography followed by TVMV cleavage, Ni-NTA chromatography, and finally size exclusion chromatography.
An inhibitory assay was conducted using the previously described p-nitrophenylphosphate assay (Rayapureddi, J. P. et al. Nature 426, 295-298 (2003)). Briefly, ED was incubated in a reaction mixture containing 20 mM MES pH 6, 2 mM MgCl2, 125 μM inhibitor, 3.4 mM para-nitrophenol phosphate (pNPP) and 0.01 μg/μL enzyme.
The compounds were then tested using full-length human recombinant, purified EYA3 and pNPP as a substrate. Compounds were dissolved in DMSO and diluted as needed. […] Reactions were incubated at 30° C. for 30 minutes and quenched with 100 mM EDTA pH 10. IC50 values were then calculated directly from regression curves using PRISM software. […]

[1] = test system: developing zebrafish vasculature; assay: Zebrafish model of angiogenesis; assay type: in vivo; conditions: exposure from 5.25 hpf, analysis at 24 hpf; compound 1 at 0.25 μM
Description: Embryos (FLK1-GFP trangenic) were maintained in fish water until the 50% epiboly stage (5.25 hpf) and were transferred into wells of 24-well plate containing the inhibitors in fish water. The analysis for vascular defects was performed after the 24 hpf stage, and embryos were imaged using a fluorescence microscope.
Transgenic fish expressing EGFP in endothelial cells (Tg(flk1:EGFP)) were used to facilitate visualization of the developing vasculature. In control experiments embryos were treated with 0.1% DMSO (vehicle). At the time of analyses (24 hpf) developing vessels normally migrated from the lateral plate mesoderm to the midline and formed the vascular cord, subsequently forming the dorsal aorta and the posterior cardinal vein and followed by the formation of intersegmental vessels at designated branch points (FIG. 6b).

retinal vasculature [2] = assay: Post-natal retinal angiogenesis in mice; assay type: in vivo
Description: Next, retinal blood vessel density and angiogenic extension were studied using induced deletion of Eya3 in mice by PDGFB-icreERT2 starting at the day of birth. Isolectin labeled retinal blood vessels at postnatal day 5 in control Eya3fl/fl (FIGS. 8b and 8d) and experimental Eya3fl/fl; PDGFB-icreERT2 (FIGS. […]) mice. FIGS. 8d and 8e are magnified images of the regions indicated in 8b and 8c, respectively.
Next, treatment with an inhibitor of Eya3 was performed to test the effect on post-natal retinal angiogenesis. Briefly, 100 μM of compound 1a was injected into the eyes of post-natal mice, at P0.5 and P3. P5 retinas were then analyzed for effects on the retinal vasculature.

HUVECs = assay: HUVEC tubulogenesis on Matrigel; assay type: cell-based, human; conditions: for tube formation on Matrigel: HUVEC
Source text: Primary endothelial cells (ECs) on basement membrane rapidly attach, align themselves and form capillary-like tubules with lumens and tight cell-cell contacts. […] To better understand the stage in matrigel tube-formation affected by compound 1g cells plated on growth-factor reduced matrigel and treated with either vehicle or compound 1g were followed. Differences become apparent within the first two hours and were clearly visible at the 6-hour time-point. The ECs are much less organized in the presence of compound 1g. […] The effect of compound 1g on tube formation was attenuated in the presence of high concentrations of fetal bovine serum (FBS), likely reflecting non-specific protein binding.
The EYA inhibitors were also tested in tubulogenesis assays. The tubulogenesis assays were performed in 15-well micro-slide (ibidi LLC, Verona Wis.), using growth factor-reduced matrigel (BD Bioscience, Billerica, Mass.). The matrix was prepared by loading 10 μl of matrigel in each micro-slide well and allowing it to solidify for 30 minutes at 37° C. HUVECs were trypsinized and resuspended at 100.000 cell/ml in EBM+2.5% FBS. 50 μl (5,000 cell) were loaded on top of the solidified matrigel and the preparation was incubated for 20 hours at 37° C. in a humidified incubator in a 5% CO2 atmosphere. Bright field images were taken using an inverted microscope at 2.5× magnification, which allowed imaging of the whole well in two pictures that were later merged in Photoshop. Tubular structures were traced and counted using NeuroJ (NIH, USA). In experiments with inhibitor, the inhibitor was added to the cell suspension before loading. Each sample was loaded in triplicate, and each treatment was repeated for reproducibility.

retinal vasculature [3] = assay: Mouse model of oxygen-induced retinopathy; assay type: in vivo, mice; conditions: 100 or 50 pmoles injected at P12, analyzed at P16
Source text: The mouse model of oxygen-induced retinopathy mimics the retinopathy characteristic of proliferative retiopathy conditions such as retinopathy of prematurity and diabetic retinopathy. […] The resulting retinal hypoxia after day 12, when pups were brought back to 20% O2, induced excessive hypoxia-driven angiogenesis. A characteristic large avascular area at the center of the retina and excessive regrowth of superficial vessels (pre-retinal neovascular tufts) in the mid-peripheral region was observed. […] In contrast, inhibition of either Vegf or Vegfr2 in OIR experiments suppresses both neovascular tuft formation and revascularization.

[4] = test system: A673 (Ewings sarcoma) cells; assay: Mouse xenograft model of Ewings sarcoma; assay type: in vivo, nude mice; conditions: intra-peritoneal 25 mg/kg/day or intra-tumor
Description: The affect of EYA inhibitors on a mouse xenograft model of Ewings sarcoma was tested. 5×10^6 A673 (Ewings sarcoma) cells in 0.1 ml sterile matrigel were injected subcutaneously into the dorsal flank region of nude mice. Approximately 5 days after injection, the tumors were about 100-300 mm^3. […] The dose for intra-peritoneal injections was 25 mg/kg/day. The tumor size was monitored every other day. Animals were sacrificed after 2 weeks, or when tumor volume approached 10% of animal weight.

EYA3-SIX2 interaction = EYA3-SIX2 interaction (Homo sapiens (Human), UniProt Q99504); assay: His-SIX2 pull-down of EYA3 on Ni-NTA; assay type: binding; conditions: 50 μM compound, 15 minutes
Source text: Each point represents the mean and standard deviation of two independent readings. (C) Plots of Vmax and Km as a function of inhibitor concentration. […] The mixture was loaded on a Ni-NTA column. Beads were washed with 3 column volumes of load buffer (last washes, lanes 2 and 6). Proteins retained on the beads are shown in lanes 3 and 7. Lanes 4 and 8 are molecular weight markers.
One function of the catalytic domain of the EYAs is to mediate its interaction with the SIX proteins. This complex then translocates to the nucleus where the SIX-EYA complex can activate transcription.

Sequence of Eya3(ED) (P97480 223-510): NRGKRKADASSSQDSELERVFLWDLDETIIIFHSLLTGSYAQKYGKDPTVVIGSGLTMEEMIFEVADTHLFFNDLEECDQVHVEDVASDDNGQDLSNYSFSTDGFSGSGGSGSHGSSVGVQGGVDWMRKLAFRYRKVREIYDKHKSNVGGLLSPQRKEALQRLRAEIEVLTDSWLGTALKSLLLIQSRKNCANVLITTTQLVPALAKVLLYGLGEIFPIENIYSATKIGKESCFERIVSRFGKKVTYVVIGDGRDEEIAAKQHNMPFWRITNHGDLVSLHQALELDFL
Sequence of EYA3-SIX2 interaction (Q99504 whole entry, looked up): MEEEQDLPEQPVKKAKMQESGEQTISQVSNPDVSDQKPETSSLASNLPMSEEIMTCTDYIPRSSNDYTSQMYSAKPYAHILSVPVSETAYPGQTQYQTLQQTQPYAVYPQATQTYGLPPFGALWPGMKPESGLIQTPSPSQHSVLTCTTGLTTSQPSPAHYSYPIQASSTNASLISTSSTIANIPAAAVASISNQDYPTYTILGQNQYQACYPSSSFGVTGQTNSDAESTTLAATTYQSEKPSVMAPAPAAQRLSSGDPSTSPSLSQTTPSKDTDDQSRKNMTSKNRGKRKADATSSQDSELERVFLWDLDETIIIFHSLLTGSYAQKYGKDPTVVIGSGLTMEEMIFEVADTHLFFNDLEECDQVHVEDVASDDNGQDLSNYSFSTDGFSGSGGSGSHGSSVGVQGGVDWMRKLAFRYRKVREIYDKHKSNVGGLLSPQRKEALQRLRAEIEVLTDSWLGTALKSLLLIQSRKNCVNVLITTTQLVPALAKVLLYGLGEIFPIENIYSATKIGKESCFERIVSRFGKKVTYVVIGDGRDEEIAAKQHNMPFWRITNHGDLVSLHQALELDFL
Sequence of EYA3-SIX2 interaction (Q9NPC8 whole entry partner, looked up): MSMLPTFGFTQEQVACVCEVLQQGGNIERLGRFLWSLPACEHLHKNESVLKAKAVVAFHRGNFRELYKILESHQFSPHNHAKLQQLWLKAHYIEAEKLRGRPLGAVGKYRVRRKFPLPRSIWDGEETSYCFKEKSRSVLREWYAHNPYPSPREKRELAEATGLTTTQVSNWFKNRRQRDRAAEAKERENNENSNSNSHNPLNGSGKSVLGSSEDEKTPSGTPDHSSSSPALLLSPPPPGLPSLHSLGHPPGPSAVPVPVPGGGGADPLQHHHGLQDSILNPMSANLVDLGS

Structure (SMILES)	IC50 (Eya3(ED))	intersegmental vessels in zebrafish embryos [1]	retinal vasculature branch points (retinal vasculature [2]; 100 μM injected into eyes at P0.5 and P3, P5 retinas)	retinal angiogenesis in VEC-specific Eya3 knockout model (retinal vasculature [2]; normal oxygen conditions)	tube formation on Matrigel (HUVECs)	formation of neovascular tufts (retinal vasculature [3])	tumor growth [4]	tubulogenesis inhibition (HUVECs; 7.5 μM)	EYA3-SIX2 interaction in presence of inhibitor (EYA3-SIX2 interaction)
CCc1oc2ccccc2c1C(=O)c1ccc(O)cc1 [Compound 1a]	19.2 µM	reduced the number of intersegmental vessels, but were less potent	quantifiable decrease in branch points	additional significant reduction in retinal angiogenesis	inhibit EYA3 protein in cell migration and tubulogenesis	Significant reduction in the formation of neovascular tufts			
CCc1oc2ccccc2c1C(=O)c1cc(Br)c(O)c(Br)c1 [Compound 1, Benzbromarone, reference compound]		significant reduction of intersegmental vessels			inhibit EYA3 protein in cell migration and tubulogenesis	Significant reduction in the formation of neovascular tufts	able to reduce tumor growth	effective at the highest concentrations tested	unaffected
